Where no end group is shown, it is not given here.

Some targets named below: DRA1*0101/DRB1*0302 (Homo sapiens, UniProt P01903+P01911, A100K/A102G/A103R/A169T/D57E/F76Y/I96L/K41T/L162R/M171V/P40S/Q125H/Q178H/Q39Y/R42S/S66N/T106N/T262R/V115G/W38E/Y61H); DRA1*0101/DRB1*0301 (Homo sapiens, UniProt P01903+P01911, A100K/A102G/A103R/A169T/F55Y/I96L/K41T/L162R/M171V/P40S/Q125H/Q178H/Q39Y/R42S/S66N/T106N/T262R/W38E/Y61H); DRA1*0101/DRB3*0301 (Homo sapiens, UniProt P01903+P79483, A169T/A212P/D57E/G115V/L67V/Q178H/R103Q/R40L/Y55F).

Assay in all cases: biochemical
Holding throughout (assay type): binding

A further experiment addresses T1, DRA1*0101/DRB1*0401 (Homo sapiens, UniProt P01903+P01911, A100K/A169T/F76Y/I96L/K127E/L162R/M171V/N62H/P40V/Q125Y/R42H/S133A/S149N/S66Y/V115G/V209L/W38E).
T1 construct: made in house

The target of a further experiment is T2, DRA1*0101/DRB1*0101 (Homo sapiens, UniProt P01903+P01911, A100R/D57E/F55L/F60I/F76Y/I96L/L162R/M171V/P40L/Q125E/R42F/V115G/Y59C).
T2 construct: made in house

Chain of DRA1*0101/DRB1*0301 (P01903 26-254 limits assumed, other chains not shown): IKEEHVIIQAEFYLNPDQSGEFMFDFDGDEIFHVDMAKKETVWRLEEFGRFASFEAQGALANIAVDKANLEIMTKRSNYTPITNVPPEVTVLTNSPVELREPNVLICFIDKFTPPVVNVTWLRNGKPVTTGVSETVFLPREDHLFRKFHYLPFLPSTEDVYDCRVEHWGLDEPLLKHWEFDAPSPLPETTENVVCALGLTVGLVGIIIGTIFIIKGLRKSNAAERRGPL
Chain of DRA1*0101/DRB3*0301 (P01903 26-254 limits assumed): as the sequence (P01903 26-254 limits assumed, other chains not shown) above
Chain of DRA1*0101/DRB3*0301 (P79483 30-266 R40L/Y55F/D57E/L67V/R103Q/G115V/A169T/Q178H/A212P limits assumed): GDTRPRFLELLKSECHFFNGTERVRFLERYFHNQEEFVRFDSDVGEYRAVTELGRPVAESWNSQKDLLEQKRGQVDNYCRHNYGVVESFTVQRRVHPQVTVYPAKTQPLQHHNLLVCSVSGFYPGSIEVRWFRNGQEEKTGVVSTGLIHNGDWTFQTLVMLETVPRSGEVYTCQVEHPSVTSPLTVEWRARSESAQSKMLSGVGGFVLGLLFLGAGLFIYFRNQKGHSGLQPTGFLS

A word on the Kd: it is the concentration at which binding is half-saturated. A high value points to lower affinity. For “YILLKKILSSRFNQM [hypothetical protein 239–253, reference compound]”, the Kd is 107 nM at DRA1*0101/DRB1*0401; 156 nM on DRA1*0101/DRB1*0302; 20 nM at DRA1*0101/DRB1*0301; 435 nM at DRA1*0101/DRB1*0101; 3 nM on DRA1*0101/DRB3*0301.

Source of the values: paper PMC2866539, “HLA Class I Binding 9mer Peptides from Influenza A Virus Induce CD4^+ T Cell Responses” (PLoS ONE, 2010).
